Structures are written as SMILES. pKi: −log10 of the molar value. Some results are limits rather than exact numbers.

Chain of α5β3γ2 GABAA receptors (P31644 32-462): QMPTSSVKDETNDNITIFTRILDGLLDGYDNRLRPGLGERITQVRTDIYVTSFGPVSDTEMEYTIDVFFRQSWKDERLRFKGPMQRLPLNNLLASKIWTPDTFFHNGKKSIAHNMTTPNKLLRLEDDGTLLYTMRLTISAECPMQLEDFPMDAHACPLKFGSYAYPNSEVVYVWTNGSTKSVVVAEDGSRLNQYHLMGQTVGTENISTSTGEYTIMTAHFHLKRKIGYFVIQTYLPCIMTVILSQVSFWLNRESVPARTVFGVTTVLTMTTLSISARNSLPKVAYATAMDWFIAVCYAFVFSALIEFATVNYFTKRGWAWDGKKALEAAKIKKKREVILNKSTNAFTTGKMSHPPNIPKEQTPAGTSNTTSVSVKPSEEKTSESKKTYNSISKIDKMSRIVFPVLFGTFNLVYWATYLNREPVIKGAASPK
Chain of α5β3γ2 GABAA receptors (P28472 26-473 partner): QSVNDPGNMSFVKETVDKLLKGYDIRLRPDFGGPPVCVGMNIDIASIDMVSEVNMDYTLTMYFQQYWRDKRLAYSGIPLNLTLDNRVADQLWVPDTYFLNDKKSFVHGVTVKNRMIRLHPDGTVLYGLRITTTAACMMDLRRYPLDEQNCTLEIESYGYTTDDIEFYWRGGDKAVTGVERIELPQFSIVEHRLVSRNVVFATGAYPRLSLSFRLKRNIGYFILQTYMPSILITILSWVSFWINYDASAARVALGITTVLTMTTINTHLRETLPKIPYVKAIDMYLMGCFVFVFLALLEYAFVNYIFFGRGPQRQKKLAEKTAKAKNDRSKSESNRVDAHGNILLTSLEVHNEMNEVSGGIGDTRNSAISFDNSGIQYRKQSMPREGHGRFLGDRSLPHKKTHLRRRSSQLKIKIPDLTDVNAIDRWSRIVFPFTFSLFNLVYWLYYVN
Chain of α5β3γ2 GABAA receptors (P18507 40-475): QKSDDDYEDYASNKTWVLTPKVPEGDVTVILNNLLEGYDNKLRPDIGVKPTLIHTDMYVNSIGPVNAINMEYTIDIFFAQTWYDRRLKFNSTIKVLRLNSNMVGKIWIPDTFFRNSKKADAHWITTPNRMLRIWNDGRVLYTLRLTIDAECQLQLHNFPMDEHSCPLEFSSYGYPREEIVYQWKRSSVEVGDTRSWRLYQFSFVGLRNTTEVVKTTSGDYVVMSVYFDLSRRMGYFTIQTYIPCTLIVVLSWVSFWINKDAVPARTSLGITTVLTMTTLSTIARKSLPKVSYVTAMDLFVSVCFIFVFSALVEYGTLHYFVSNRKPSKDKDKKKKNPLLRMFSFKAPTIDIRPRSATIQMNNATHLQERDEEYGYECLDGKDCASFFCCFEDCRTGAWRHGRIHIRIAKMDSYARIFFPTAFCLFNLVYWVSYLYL

The target in the first experiment is T1, GABAA receptors (α5β2γ2) (Homo sapiens, UniProt P18507+P31644).
T1 construct: expressed in transfected cells
T1 sequence (P31644 32-462): as the sequence (P31644 32-462) above
T1 sequence (P47870 25-512, further chain): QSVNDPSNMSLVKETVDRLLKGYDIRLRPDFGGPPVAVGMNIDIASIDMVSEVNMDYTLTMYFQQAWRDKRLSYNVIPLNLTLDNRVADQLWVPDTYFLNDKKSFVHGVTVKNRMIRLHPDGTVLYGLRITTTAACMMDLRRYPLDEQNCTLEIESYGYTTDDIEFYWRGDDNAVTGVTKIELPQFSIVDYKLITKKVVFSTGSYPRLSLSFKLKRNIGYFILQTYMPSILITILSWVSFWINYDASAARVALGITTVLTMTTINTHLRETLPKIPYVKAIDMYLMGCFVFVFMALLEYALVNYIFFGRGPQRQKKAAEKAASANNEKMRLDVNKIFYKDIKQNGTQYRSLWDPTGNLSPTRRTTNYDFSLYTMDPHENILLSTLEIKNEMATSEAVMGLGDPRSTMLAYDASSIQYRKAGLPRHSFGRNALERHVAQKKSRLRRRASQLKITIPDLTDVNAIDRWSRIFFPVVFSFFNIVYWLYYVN
T1 sequence (P18507 40-475): as the sequence (P18507 40-475) above
In words: Positive allosteric modulator activity: potentiation of EC20 GABA current in oocytes. The settings on record: read-out: GABA α5 Functional Data (potentiation of EC20 GABA); @ 100 nM; ranges. The class given is cell-based. How it is done: On day 1, 1 ng/32 nL of GABAA α5β2γ2 cDNA was injected into one oocyte. Test starts on day 2. The cDNA injected to the oocytes was a mix of alpha, beta and gamma, their ratio is 1:1:10 (by weight) and the total weight of the mixed 3 subunits to be injected in one oocyte was 1 ng in 32 nl volume. The injected oocytes can also be tested on day 3. In such case, the cDNA amount injected to the oocytes should be reduced by 20%.
1). 8 oocytes were placed in 8 chambers of OpusXpress and superfused with Modified Barth's Saline (MBS) at 3 mL/min. Glass electrodes back-filled with 3M KCl (0.5-3 megaohms) were used.
1). New oocytes were used to run new test.
3). […] Oocytes were washed with MBS for 5-10 min.
4). […] Itest was divided by IGABA to obtain potentiation (%).
Test Compounds at Multiple Doses • 1). Repeat the above steps 1), 2) and 3) in the control test. • 2). […] Divide Itest by IGABA to obtain potentiation (%). • 3). Discard all tested oocytes, new oocytes were used and the above steps 1) and 2) were repeated to test second concentration of the same compound. Each oocyte was used for only one concentration test for a single test compound. The steps were repeated for other test compounds.
Turning to `COCc1nnc2n1Cc1c(C#Cc3cnc(C)[nH]3)ncn1-c1ccc(OC)cc1-2` [Compound 685], the activation at 0.1 µM is above 50%.
Same read-out and setting: for `C#Cc1ncn2c1Cn1c(COc3ccccc3F)nnc1-c1cc(Cl)ccc1-2` [Compound 353, 15-chloro-5-ethynyl-9-(2-fluorophenoxymethyl)-2,4,8,10,11-pentaazatetracyclo[11.4.0.0^2,6.0^8,12]heptadeca-1(17),3,5,9,11,13,15-heptaene] the value was above 50%; for `COc1ccc2c(c1)-n1nncc1Cc1c(C#CCc3cccc(Cl)c3)ncn1-2` [Compound 417], 5 to 20%; for `COCc1nnc2n1Cc1c(C#CCc3cccc(F)c3)ncn1-c1ccc(Cl)cc1-2` [Compound 421], 20 to 50%.
Turning to `C#Cc1ncn2c1Cc1cnnn1-c1cc(Cl)ccc1-2` [Compound 356], the activation at 0.1 µM was above 50%.
Turning to `COCc1nnc2n1Cc1c(C#Cc3ccn(C)n3)ncn1-c1ccc(OC)cc1-2` [Compound 687], the activation at 0.1 µM is above 50%.
Same read-out and setting: for `COCc1nnc2n1Cc1c(C#CCc3cccc(Cl)c3)ncn1-c1ccc(Cl)cc1-2` [Compound 422] the value was 20 to 50%; for `COCc1nnc2n1Cc1c(C#CCc3cccc(OC(F)(F)F)c3)ncn1-c1ccc(Cl)cc1-2` [Compound 423], 5 to 20%; for `COc1ccc2c(c1)-n1nncc1Cc1c(C#CCc3cccc(F)c3)ncn1-2` [Compound 419], 20 to 50%.

A further experiment concerns the target α5β3γ2 GABAA receptors (Homo sapiens, UniProt P18507+P31644). Briefly: [3H]Ro15-1788 binding, membranes of Ltk cells stably expressing α5β3γ2 GABAA receptors.
Conditions: not given
The pKi is the negative decadic logarithm of the Ki, by convention in mol/L. A low value points to a high Ki. Turning to `COc1ccc2c(c1)-n1nncc1Cc1c(C#Cc3ccc(OC(F)F)nc3)ncn1-2` [Compound 693], the pKi was above 7.00.
Compound `COCc1nnn2c1Cc1c(C#Cc3cnc(OC)s3)ncn1-c1ccc(OC)cc1-2` [Compound 647] showed a negative-log Ki (pKi) above 7.00.
Take `COc1ccc(C#Cc2ncn3c2Cc2cnnn2-c2cc(Cl)ccc2-3)nc1` [Compound 532]: the negative logarithm of the Ki (pKi) is above 7.00.
In turn, `Fc1cccc(COCc2ncn3c2Cc2cnnn2-c2cc(Cl)ccc2-3)c1` [Compound 543] showed a negative-log Ki (pKi) of 6.00 to 7.00.
Turning to `Cc1ncc(C#Cc2ncn3c2Cc2cnnn2-c2cc(Cl)ccc2-3)[nH]1` [Compound 659], the pKi is above 7.00.
On the same count and under the same terms, for `Clc1ccc2c(c1)-n1nncc1Cc1c(C#Cc3cnc4occc4c3)ncn1-2` [Compound 658] the value was above 7.00; for `COc1ccc2c(c1)-n1nncc1Cc1c(C3=NC[C@@H](c4cccc(F)c4)O3)ncn1-2` [Compound 692], above 7.00; for `COc1ccc2c(c1)-n1nncc1Cc1c(C3=NCC(c4cccnc4)O3)ncn1-2` (racemic) [Compound 691], above 7.00.
Consider `Clc1cccc(COCc2ncn3c2Cc2cnnn2-c2cc(Cl)ccc2-3)c1` [Compound 542], for which the pKi was 6.00 to 7.00.
Still for that read-out and setting: for `Cc1noc(-c2ncn3c2Cc2c(Cc4ccc(F)cc4)nnn2-c2cc(Cl)ccc2-3)n1` [Compound 479] the value was above 7.00.

The experiment is the same for the next values; noted with them: ranges; inhibition of [3H]Ro15-1788 binding.
Compound `CC(C)OCc1nnc2n1Cc1c(-c3nc(-c4ccccc4)co3)ncn1-c1ccc(Cl)cc1-2` [Compound 276] had a negative-log Ki (pKi) above 7.00.
The same measure, in the same setting: for `CC1(C)OC(c2ncn3c2Cc2cnnn2-c2cc(OC(F)F)ccc2-3)=N[C@H]1c1ccccc1` [Compound 626] the value was 6.00 to 7.00; for `COCc1nnc2n1Cc1c(C#Cc3cccc(OC)n3)ncn1-c1ccc(Cl)cc1-2` [Compound 611], above 7.00.
On the same count and under the same terms, for `COCc1nnc2n1Cc1c(-c3nc(C)no3)ncn1-c1ccc(-c3ccncc3)cc1-2` [Compound 468] the value was below 6.00; for `COCc1nnc2n1Cc1c(C#Cc3ncc(C)cn3)ncn1-c1ccc(Cl)cc1-2` [Compound 600], 6.00 to 7.00.
Still for that read-out and setting: for `COCc1nnn2c1Cc1c(C3=NC[C@@H](c4ccc(Cl)cc4)O3)ncn1-c1ccc(Cl)cc1-2` [Compound 634] the value was above 7.00.
The compound `COCc1nnc2n1Cc1c(C#Cc3cnc(OC)nc3)ncn1-c1ccc(Cl)cc1-2` [Compound 575] showed a pKi of 6.00 to 7.00.
With `COCc1nnc2n1Cc1c(C#Cc3cnc(C)cn3)ncn1-c1ccc(OC)cc1-2` [Compound 588], the pKi is above 7.00.
Still for that read-out and setting: for `COc1ccc2c(c1)-n1nncc1Cc1c(C#Cc3ccc(C(F)(F)F)cn3)ncn1-2` [Compound 529] the value was 6.00 to 7.00.
The same measure, in the same setting: for `COCc1nnc2n1Cc1c(C#Cc3ccc(OCC4CC4)nc3)ncn1-c1ccc(Cl)cc1-2` [Compound 700] the value was above 7.00; for `Cc1noc(-c2ncn3c2Cc2c(Cc4ccc(F)cc4)nnn2-c2cc(OC(F)(F)F)ccc2-3)n1` [Compound 478], above 7.00.
In turn, `COCc1nnc2n1Cc1c(C#Cc3ccc(SC)nc3)ncn1-c1ccc(OC)cc1-2` [Compound 665] had a pKi of 6.00 to 7.00.
`COc1ccc2c(c1)-n1nncc1Cc1c(C#Cc3cnc(OC)s3)ncn1-2` [Compound 621] gave a pKi above 7.00.
With `COCc1nnc2n1Cc1c(C#Cc3ccc(C#N)cn3)ncn1-c1ccc(OC)cc1-2` [Compound 590], the pKi was 6.00 to 7.00.
As to `Cc1nc(-c2ncn3c2Cc2c(Cc4ccc(F)cc4)nnn2-c2cc(Cl)ccc2-3)no1` [Compound 496], the pKi is above 7.00.
Still for that read-out and setting: for `Fc1ccc(OCc2ncn3c2Cc2cnnn2-c2cc(Cl)ccc2-3)cc1` [Compound 545] the value was above 7.00; for `COCc1nnc2n1Cc1c(C#Cc3nc(C)cs3)ncn1-c1ccc(OC)cc1-2` [Compound 602], above 7.00.
In the case of `COCc1nnc2n1Cc1c(C#Cc3ccc(C#N)cn3)ncn1-c1ccc(Cl)cc1-2` [Compound 577], the pKi is 6.00 to 7.00.
Same read-out and setting: for `CCOc1ccc(C#Cc2ncn3c2Cn2c(COC)nnc2-c2cc(Cl)ccc2-3)cn1` [Compound 709] the value was 6.00 to 7.00.
Compound `COCc1nnn2c1Cc1c(C#Cc3ccnn3C)ncn1-c1ccc(Cl)cc1-2` [Compound 642] showed a negative logarithm of the Ki (pKi) above 7.00.
Compound `Clc1ccc2c(c1)-c1nnc(Oc3ccccc3)n1Cc1c(C3=N[C@H](c4ccccc4)CO3)ncn1-2` [Compound 541] showed a pKi above 7.00.
Still for that read-out and setting: for `COCc1nnc2n1Cc1c(C#Cc3ccc(C)cn3)ncn1-c1ccc(Cl)cc1-2` [Compound 557] the value was above 7.00; for `FC(F)Oc1ccc2c(c1)-n1nncc1Cc1c(C3=NC[C@H](c4ccccc4)O3)ncn1-2` [Compound 625], 6.00 to 7.00; for `COCc1nnc2n1Cc1c(C#Cc3cc(C)ccn3)ncn1-c1ccc(OC)cc1-2` [Compound 564], 6.00 to 7.00.
Compound `COCc1nnc2n1Cc1c(C#Cc3cnc(C)nc3)ncn1-c1ccc(OC)cc1-2` [Compound 594] gave a negative-log Ki (pKi) of 6.00 to 7.00.
Regarding `CCCc1noc(-c2ncn3c2Cc2c(Cc4ccc(F)cc4)nnn2-c2cc(OC(F)(F)F)ccc2-3)n1` [Compound 486], the pKi is above 7.00.
`COCc1nnc2n1Cc1c(C#Cc3cnc(C)nc3)ncn1-c1ccc(Cl)cc1-2` [Compound 573] showed a pKi of 6.00 to 7.00.
In turn, `COCc1nnc2n1Cc1c(C#Cc3c[nH]nc3OC)ncn1-c1ccc(Cl)cc1-2` [Compound 664] had a pKi above 7.00.
The same measure, in the same setting: for `COCc1nnc2n1Cc1c(C#CC(C)(C)C)ncn1-c1ccc(Cl)cc1-2` [Compound 721] the value was above 7.00; for `COCc1nnc2n1Cc1c(C#Cc3ccc(OC(F)(F)F)cn3)ncn1-c1ccc(Cl)cc1-2` [Compound 580], above 7.00; for `COc1ccc2c(c1)-c1nnc(COC(F)F)n1Cc1c(C#Cc3ccc(OC)nc3)ncn1-2` [Compound 620], above 7.00.
`COCc1nnc2n1Cc1c(C#Cc3ccc4nccn4c3)ncn1-c1ccc(OC)cc1-2` [Compound 684] had a negative logarithm of the Ki (pKi) of 6.00 to 7.00.
With `COCc1nnc2n1Cc1c(C#Cc3ccc(OC)c(C)n3)ncn1-c1ccc(OC)cc1-2` [Compound 586], the negative logarithm of the Ki (pKi) is above 7.00.
`COc1ccc2c(c1)-n1nncc1Cc1c(C#Cc3ccc(OC)nn3)ncn1-2` [Compound 694]: the pKi is above 7.00.
The same measure, in the same setting: for `COCc1nnc2n1Cc1c(C#Cc3cc(C)ccn3)ncn1-c1ccc(Cl)cc1-2` [Compound 560] the value was above 7.00.
With `Fc1cccc(Cc2nnn3c2Cc2c(-c4nc(-c5ccccc5)no4)ncn2-c2ccc(Cl)cc2-3)c1` [Compound 550], the negative logarithm of the Ki (pKi) is 6.00 to 7.00.
Consider `COCc1nnc2n1Cc1c(C#Cc3ccc4ncccc4c3)ncn1-c1ccc(OC)cc1-2` [Compound 714], for which the pKi was above 7.00.
`COCc1nnc2n1Cc1c(C#Cc3cccc(OC)n3)ncn1-c1ccc(OC)cc1-2` [Compound 612] gave a negative-log Ki (pKi) above 7.00.
On the same count and under the same terms, for `Cc1noc(-c2ncn3c2Cc2c(Cc4cccc(F)c4)nnn2-c2cc(Cl)ccc2-3)n1` [Compound 477] the value was above 7.00; for `COc1ccc(C#Cc2ncn3c2Cc2cnnn2-c2cc(Cl)ccc2-3)cn1` [Compound 533], above 7.00.
Still for that read-out and setting: for `COc1ncc(C#Cc2ncn3c2Cc2cnnn2-c2cc(Cl)ccc2-3)s1` [Compound 622] the value was above 7.00.
In turn, `COCc1nnc2n1Cc1c(C#Cc3cccnc3OC)ncn1-c1ccc(Cl)cc1-2` [Compound 614] showed a pKi above 7.00.
On the same count and under the same terms, for `COCc1nnc2n1Cc1c(C#Cc3ncc(C)s3)ncn1-c1ccc(OC)cc1-2` [Compound 601] the value was above 7.00.
In the case of `COCc1nnc2n1Cc1c(C#Cc3ccc(F)cn3)ncn1-c1ccc(OC)cc1-2` [Compound 585], the negative logarithm of the Ki (pKi) was above 7.00.
On the same count and under the same terms, for `Fc1ccccc1OCc1ncn2c1Cc1cnnn1-c1cc(Cl)ccc1-2` [Compound 547] the value was 6.00 to 7.00.

The values are drawn from US11414425B2 (priority 2018, dated 2022).
